Each structure is given as a SMILES string. Some results are limits rather than exact numbers.

For twelve molecules, Ki results are on record in patent publication US7276523B2, “Aminopyridine derivatives as estrogen receptor modulators” (SmithKline Beecham Corporation, priority 2001, dated 2007).

T2 sequence (Q92731 264-498 limits assumed): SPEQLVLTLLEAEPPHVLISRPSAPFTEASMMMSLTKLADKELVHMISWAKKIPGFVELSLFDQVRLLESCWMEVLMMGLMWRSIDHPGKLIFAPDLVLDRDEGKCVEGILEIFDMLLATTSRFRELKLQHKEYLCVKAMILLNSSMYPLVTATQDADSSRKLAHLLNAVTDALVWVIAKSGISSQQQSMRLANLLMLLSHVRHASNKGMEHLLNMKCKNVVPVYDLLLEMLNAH

The first assay deals with T1, GST-hERα (ligand binding domain) (Homo sapiens, UniProt P03372).
T1 construct: made in house; host or cells: E. coli BL21(DE3)pLysS
T1 sequence (P03372 311-547 limits assumed): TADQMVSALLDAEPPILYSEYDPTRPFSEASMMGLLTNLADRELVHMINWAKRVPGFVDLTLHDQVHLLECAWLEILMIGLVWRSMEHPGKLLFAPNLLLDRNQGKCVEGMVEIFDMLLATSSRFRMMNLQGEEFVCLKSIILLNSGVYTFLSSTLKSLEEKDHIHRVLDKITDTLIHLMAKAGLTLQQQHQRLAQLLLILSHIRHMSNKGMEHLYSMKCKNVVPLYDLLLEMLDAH
Kind of assay: Competition binding assay (SPA, [3H]estradiol), ER alpha. Particulars: read-out: Avg. ER alpha Ki (n). The procedure: The ligand binding domain of both ERα and ERβ were subcloned into pGEX-2T vector, which had been modified to contain KpnI and BamHI restriction, sites in the multiple cloning region. GST-hERα and GST-hERβ proteins were made by transforming BL21(DE3)pLYS S competent cells with the appropriate expression plasmid. […] The cells were collected by centrifugation and resuspended in lysis buffer (50 mM Tris pH 7.9; 250 mM KCl; 1% Triton X-100; 10 mM DTT; 1 mM PMSF). The lysate was then placed on dry ice until completely frozen. The frozen lysate was thawed and centrifuged 20 min at 4° C. at 80 K rpm in a TLA 100.2 rotor in a Beckman TL-100 ultracentrifuge. The supernatant was retained and glycerol was added to a final concentration of 10%. The protein content of the supernatant was quantitated using the BioRad Protein Assay Reagent. The protein was then stored at −80° C. until used in the binding assay.
Polylysine coated Yttrium Silicate SPA beads (Amersham #RPNQ 0010) was resuspended in assay buffer [10 mM potassium phosphate buffer pH 7.0 containing 2 mM EDTA, 50 mM NaCl, 1 mM DTT, 2 mM CHAPS, 10% glycerol] to a concentration of 1 g/60 ml. 30 ul (0.5 mg) of the SPA beads was then added to each well of a Packard OptiPlate (Packard 6005190, Packard Instruments, Meriden, Conn.). […] The plates were shaken vigorously for two hours then counted on a Packard TopCount using the protocol for counting tritium yttrium silicate SPA beads. Data analysis was done by standard methods. % Bound was calculated for each concentration of each test compound using the equation % Bound=100*((Test−NS)/(T−NS)). % Bound was plotted vs concentration and curve fitting was accomplished using non-linear regression.
Saturation binding assays were run similarly to competition assays.
Take `CC(C)CCN(C)c1cc(-c2ccccc2)cc(-c2ccc(O)cc2)n1` [Example 20, 4-{6-[isopentyl(methyl)amino]-4-phenyl-2-pyridinyl}phenol]: the inhibition constant Ki worked out at 0.62 µM.
The same measure, in the same setting: next, `Cc1cc(O)ccc1-c1cc(-c2ccccc2)cc(N2CCC(Cc3ccccc3)CC2)n1` [Example 29, 4-[6-(4-benzyl-1-piperidinyl)-4-phenyl-2-pyridinyl]-3-methylphenol]: 0.02 µM; `CCCCN(C)c1cc(-c2ccccc2)cc(-c2cccc(O)c2)n1` [Example 12, 3-{6-[butyl(methyl)amino]-4-phenyl-2-pyridinyl}phenol]: 0.66 µM; `Cc1cc(O)ccc1-c1cc(-c2ccccc2)cc(N(CCc2ccccc2)Cc2ccccc2)n1` [Example 31, 4-{6-[benzyl(2-phenylethyl)amino]-4-phenyl-2-pyridinyl}-3-methylphenol]: 0.13 µM.
With `Cc1cc(O)ccc1-c1cc(-c2ccccc2)cc(N(C)CCC(C)C)n1` [Example 21, 4-{6-[isopentyl(methyl)amino]-4-phenyl-2-pyridinyl}-3-methylphenol], the Ki came out at 0.21 µM.
On the same count and under the same terms, the figure for `Cc1cc(O)ccc1-c1cc(-c2ccccc2)cc(N(C)CCc2ccccn2)n1` [Example 23, 3-methyl-4-(6-{methyl[2-(2-pyridinyl)ethyl]amino}-4-phenyl-2-pyridinyl)phenol] is 1.26 µM.
Same read-out and setting: the figure for `CCOCCN(CCOCC)c1cc(-c2ccccc2)cc(-c2ccc(O)cc2C)n1` [Example 32, 4-{6-[bis(2-ethoxyethyl)amino]-4-phenyl-2-pyridinyl}-3-methylphenol] is 2 µM.
In the case of `Cc1cc(O)ccc1-c1cc(-c2ccccc2)cc(N(C)Cc2cccc3ccccc23)n1` [Example 18, 3-methyl-4-{6-[methyl(1-naphthylmethyl)amino]-4-phenyl-2-pyridinyl}phenol], the Ki was found to be 0.45 µM.
Same read-out and setting: next, `CCN(Cc1ccncc1)c1cc(-c2ccccc2)cc(-c2ccc(O)cc2C)n1` [Example 28, 4-{6-[ethyl(4-pyridinylmethyl)amino]-4-phenyl-2-pyridinyl}-3-methylphenol]: 0.83 µM.
On to `CCCN(Cc1ccccn1)c1cc(-c2ccccc2)cc(-c2ccc(O)cc2C)n1` [Example 26, 3-methyl-4-{4-phenyl-6-[propyl(2-pyridinylmethyl)amino]-2-pyridinyl}phenol], for which the Ki worked out at 0.07 µM.
Still for that read-out and setting: next, `Cc1cc(O)ccc1-c1cc(-c2ccccc2)cc(N(C)Cc2ccccc2)n1` [Example 15, 4-{6-[benzyl(methyl)amino]-4-phenyl-2-pyridinyl}-3-methylphenol]: 0.38 µM; `Cc1cc(O)ccc1-c1cc(-c2ccccc2)cc(N(C)CCc2ccccc2)n1` [Example 6, 3-methyl-4-{6-[methyl(2-phenylethyl)amino]-4-phenyl-2-pyridinyl}phenol]: 0.16 µM.

A further assay concerns the target T2, GST-hERβ (ligand binding domain) (Homo sapiens, UniProt Q92731).
T2 construct: made in house; host or cells: E. coli BL21(DE3)pLysS
Kind of assay: Competition binding assay (SPA, [3H]estradiol), ER beta.
Conditions: not given
On the procedure: The ligand binding domain of both ERα and ERβ were subcloned into pGEX-2T vector, which had been modified to contain KpnI and BamHI restriction, sites in the multiple cloning region. GST-hERα and GST-hERβ proteins were made by transforming BL21(DE3)pLYS S competent cells with the appropriate expression plasmid. Liquid cultures containing standard Luria-Bertani (LB) broth with 0.1 mg/ml ampicillin and 0.033 mg/ml chloramphenicol were grown at 37° C. to an OD600 of 0.5-1.0 then induced with IPTG for 2-3 hours. The cells were collected by centrifugation and resuspended in lysis buffer (50 mM Tris pH 7.9; 250 mM KCl; 1% Triton X-100; 10 mM DTT; 1 mM PMSF). The lysate was then placed on dry ice until completely frozen. The frozen lysate was thawed and centrifuged 20 min at 4° C. at 80 K rpm in a TLA 100.2 rotor in a Beckman TL-100 ultracentrifuge. The supernatant was retained and glycerol was added to a final concentration of 10%. The protein content of the supernatant was quantitated using the BioRad Protein Assay Reagent. The protein was then stored at −80° C. until used in the binding assay.
Polylysine coated Yttrium Silicate SPA beads (Amersham #RPNQ 0010) was resuspended in assay buffer [10 mM potassium phosphate buffer pH 7.0 containing 2 mM EDTA, 50 mM NaCl, 1 mM DTT, 2 mM CHAPS, 10% glycerol] to a concentration of 1 g/60 ml. 30 ul (0.5 mg) of the SPA beads was then added to each well of a Packard OptiPlate (Packard 6005190, Packard Instruments, Meriden, Conn.). […] [2, 4, 6, 7, 16, 17-3H(N)]-Estradiol was added as a 30 ul aliquot to give a final assay concentration of 1 nM. To give a final volume of 100 ul, either 10 ul of a test compound solution (typically in 10% DMSO as solvent), solvent containing no test compound (to determine total binding, T), or solvent containing 17-b-estradiol at 100 uM (to determine non-specific binding, NS) were finally added to the plate. The plates were shaken vigorously for two hours then counted on a Packard TopCount using the protocol for counting tritium yttrium silicate SPA beads. Data analysis was done by standard methods. % Bound was calculated for each concentration of each test compound using the equation % Bound=100*((Test−NS)/(T−NS)). % Bound was plotted vs concentration and curve fitting was accomplished using non-linear regression.
Saturation binding assays were run similarly to competition assays. […] [2, 4, 6, 7, 16, 17-3H(N)]-Estradiol was added such that the final concentration ranged from 0.1 to 100 nM.
`CC(C)CCN(C)c1cc(-c2ccccc2)cc(-c2ccc(O)cc2)n1` [Example 20, 4-{6-[isopentyl(methyl)amino]-4-phenyl-2-pyridinyl}phenol]: the Ki was 1.26 µM.
Molecule `Cc1cc(O)ccc1-c1cc(-c2ccccc2)cc(N2CCC(Cc3ccccc3)CC2)n1` [Example 29, 4-[6-(4-benzyl-1-piperidinyl)-4-phenyl-2-pyridinyl]-3-methylphenol] displayed an inhibitory constant (Ki) of 0.11 µM.
Still for that read-out and setting: next, `CCCCN(C)c1cc(-c2ccccc2)cc(-c2cccc(O)c2)n1` [Example 12, 3-{6-[butyl(methyl)amino]-4-phenyl-2-pyridinyl}phenol]: 0.79 µM.
`Cc1cc(O)ccc1-c1cc(-c2ccccc2)cc(N(CCc2ccccc2)Cc2ccccc2)n1` [Example 31, 4-{6-[benzyl(2-phenylethyl)amino]-4-phenyl-2-pyridinyl}-3-methylphenol] had an inhibitory constant (Ki) of 0.25 µM.
The same measure, in the same setting: the figure for `Cc1cc(O)ccc1-c1cc(-c2ccccc2)cc(N(C)CCC(C)C)n1` [Example 21, 4-{6-[isopentyl(methyl)amino]-4-phenyl-2-pyridinyl}-3-methylphenol] is 0.66 µM; for `Cc1cc(O)ccc1-c1cc(-c2ccccc2)cc(N(C)CCc2ccccn2)n1` [Example 23, 3-methyl-4-(6-{methyl[2-(2-pyridinyl)ethyl]amino}-4-phenyl-2-pyridinyl)phenol] it is over 3 µM; for `CCOCCN(CCOCC)c1cc(-c2ccccc2)cc(-c2ccc(O)cc2C)n1` [Example 32, 4-{6-[bis(2-ethoxyethyl)amino]-4-phenyl-2-pyridinyl}-3-methylphenol] it is 1.17 µM.
Regarding `Cc1cc(O)ccc1-c1cc(-c2ccccc2)cc(N(C)Cc2cccc3ccccc23)n1` [Example 18, 3-methyl-4-{6-[methyl(1-naphthylmethyl)amino]-4-phenyl-2-pyridinyl}phenol], the inhibitory constant (Ki) was 1.41 µM.
The molecule `CCN(Cc1ccncc1)c1cc(-c2ccccc2)cc(-c2ccc(O)cc2C)n1` [Example 28, 4-{6-[ethyl(4-pyridinylmethyl)amino]-4-phenyl-2-pyridinyl}-3-methylphenol] registered an inhibition constant Ki of 1 µM.
The molecule `CCCN(Cc1ccccn1)c1cc(-c2ccccc2)cc(-c2ccc(O)cc2C)n1` [Example 26, 3-methyl-4-{4-phenyl-6-[propyl(2-pyridinylmethyl)amino]-2-pyridinyl}phenol] displayed a Ki of 0.33 µM.
In turn, `Cc1cc(O)ccc1-c1cc(-c2ccccc2)cc(N(C)Cc2ccccc2)n1` [Example 15, 4-{6-[benzyl(methyl)amino]-4-phenyl-2-pyridinyl}-3-methylphenol] returned an inhibition constant (Ki) of 1.12 µM.
On the same count and under the same terms, the figure for `Cc1cc(O)ccc1-c1cc(-c2ccccc2)cc(N(C)CCc2ccccc2)n1` [Example 6, 3-methyl-4-{6-[methyl(2-phenylethyl)amino]-4-phenyl-2-pyridinyl}phenol] is 0.68 µM.

For orientation: Ki means the dissociation constant of the complex between target and ligand, obtained from inhibition or displacement.
